Experimental data taken from patent US20250381157A1, “ANTIMICROBIAL COMPOUNDS” (priority 2022, published 2025).

What was measured:
[1] = Stability SGD, SIF w. Enzymes; type: in vitro ADME
[2] = Mouse ileum C-max after single PO dose; type: in vivo
recombinant human HDAC1 = target: T1, recombinant human HDAC1 (Homo sapiens, UniProt Q13547); assay: HDAC1 in-vitro enzymatic assay; type: biochemical
T1 construct: purchased BPS 50051
Procedure: (§1) All of the compounds were dissolved in DMSO. A series of dilutions of the compounds were prepared with 10% DMSO in HDAC assay buffer and 5 μl of the dilution was added to a 50 μl reaction so that the final concentration of DMSO was 1% in all of reactions. The compounds were pre-incubated in duplicate at RT for 30 minutes in a mixture containing HDAC assay buffer, 5 μg BSA, HDAC enzyme and a test compound. After 30 minutes, the enzymatic reactions were initiated by the addition of HDAC substrate to a final concentration of 20 μM or 2 μM. The enzymatic reaction proceeded for 30 minutes at 37° C. After enzymatic reactions, 50 μl of 2×HDAC Developer was added to each well for the HDAC enzymes and the plate was incubated at room temperature for an additional 15 minutes. Fluorescence intensity was measured at an excitation of 360 nm and an emission of 460 nm using a Tecan Infinite M1000 microplate reader.
(§2) HDAC activity assays were performed in duplicates at each concentration. The fluorescent intensity data were analyzed using the computer software, Graphpad Prism. […] The percent activity in the presence of each compound was calculated according to the following equation: % activity=(F−Fb)/(Ft−Fb), where F=the fluorescent intensity in the presence of the compound. […] The IC50 value was determined by the concentration causing a half-maximal percent activity.

recombinant human HDAC4 = target: T2, recombinant human HDAC4 (Homo sapiens, UniProt P56524); assay: HDAC4 in-vitro enzymatic assay; type: biochemical
T2 construct: purchased BPS 50004
T2 sequence (P56524 whole entry): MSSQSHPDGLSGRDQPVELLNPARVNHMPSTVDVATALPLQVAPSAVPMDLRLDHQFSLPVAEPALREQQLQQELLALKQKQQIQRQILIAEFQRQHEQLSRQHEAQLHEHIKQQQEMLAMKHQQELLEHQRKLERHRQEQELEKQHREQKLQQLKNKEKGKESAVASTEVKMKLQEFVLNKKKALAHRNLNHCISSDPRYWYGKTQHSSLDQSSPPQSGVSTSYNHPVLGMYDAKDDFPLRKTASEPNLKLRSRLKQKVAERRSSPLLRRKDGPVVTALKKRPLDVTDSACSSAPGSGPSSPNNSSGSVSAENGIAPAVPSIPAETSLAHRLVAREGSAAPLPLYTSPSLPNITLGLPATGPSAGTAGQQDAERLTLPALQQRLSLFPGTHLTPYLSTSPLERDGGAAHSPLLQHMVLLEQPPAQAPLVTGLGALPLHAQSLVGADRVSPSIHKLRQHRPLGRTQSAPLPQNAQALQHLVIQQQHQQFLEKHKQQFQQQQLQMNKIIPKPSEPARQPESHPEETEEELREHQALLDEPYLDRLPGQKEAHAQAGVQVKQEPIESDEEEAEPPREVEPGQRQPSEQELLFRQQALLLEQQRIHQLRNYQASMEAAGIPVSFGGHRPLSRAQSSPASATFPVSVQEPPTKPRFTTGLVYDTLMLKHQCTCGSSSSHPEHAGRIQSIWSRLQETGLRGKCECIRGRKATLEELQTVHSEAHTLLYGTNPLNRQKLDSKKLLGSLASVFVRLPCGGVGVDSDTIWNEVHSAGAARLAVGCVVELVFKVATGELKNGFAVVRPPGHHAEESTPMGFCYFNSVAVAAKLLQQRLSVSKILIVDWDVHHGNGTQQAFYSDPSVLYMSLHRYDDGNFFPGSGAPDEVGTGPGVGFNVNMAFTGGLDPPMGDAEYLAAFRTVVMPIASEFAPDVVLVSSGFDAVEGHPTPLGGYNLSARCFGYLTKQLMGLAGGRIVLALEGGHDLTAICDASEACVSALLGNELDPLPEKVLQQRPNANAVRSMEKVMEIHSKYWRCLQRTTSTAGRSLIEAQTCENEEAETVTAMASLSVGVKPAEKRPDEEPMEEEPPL
Procedure: as §1, §2

recombinant human HDAC6 = target: T3, recombinant human HDAC6 (Homo sapiens, UniProt Q9UBN7); assay: HDAC6 in-vitro enzymatic assay; type: biochemical
T3 construct: purchased BPS 50006
T3 sequence (Q9UBN7 1-1215): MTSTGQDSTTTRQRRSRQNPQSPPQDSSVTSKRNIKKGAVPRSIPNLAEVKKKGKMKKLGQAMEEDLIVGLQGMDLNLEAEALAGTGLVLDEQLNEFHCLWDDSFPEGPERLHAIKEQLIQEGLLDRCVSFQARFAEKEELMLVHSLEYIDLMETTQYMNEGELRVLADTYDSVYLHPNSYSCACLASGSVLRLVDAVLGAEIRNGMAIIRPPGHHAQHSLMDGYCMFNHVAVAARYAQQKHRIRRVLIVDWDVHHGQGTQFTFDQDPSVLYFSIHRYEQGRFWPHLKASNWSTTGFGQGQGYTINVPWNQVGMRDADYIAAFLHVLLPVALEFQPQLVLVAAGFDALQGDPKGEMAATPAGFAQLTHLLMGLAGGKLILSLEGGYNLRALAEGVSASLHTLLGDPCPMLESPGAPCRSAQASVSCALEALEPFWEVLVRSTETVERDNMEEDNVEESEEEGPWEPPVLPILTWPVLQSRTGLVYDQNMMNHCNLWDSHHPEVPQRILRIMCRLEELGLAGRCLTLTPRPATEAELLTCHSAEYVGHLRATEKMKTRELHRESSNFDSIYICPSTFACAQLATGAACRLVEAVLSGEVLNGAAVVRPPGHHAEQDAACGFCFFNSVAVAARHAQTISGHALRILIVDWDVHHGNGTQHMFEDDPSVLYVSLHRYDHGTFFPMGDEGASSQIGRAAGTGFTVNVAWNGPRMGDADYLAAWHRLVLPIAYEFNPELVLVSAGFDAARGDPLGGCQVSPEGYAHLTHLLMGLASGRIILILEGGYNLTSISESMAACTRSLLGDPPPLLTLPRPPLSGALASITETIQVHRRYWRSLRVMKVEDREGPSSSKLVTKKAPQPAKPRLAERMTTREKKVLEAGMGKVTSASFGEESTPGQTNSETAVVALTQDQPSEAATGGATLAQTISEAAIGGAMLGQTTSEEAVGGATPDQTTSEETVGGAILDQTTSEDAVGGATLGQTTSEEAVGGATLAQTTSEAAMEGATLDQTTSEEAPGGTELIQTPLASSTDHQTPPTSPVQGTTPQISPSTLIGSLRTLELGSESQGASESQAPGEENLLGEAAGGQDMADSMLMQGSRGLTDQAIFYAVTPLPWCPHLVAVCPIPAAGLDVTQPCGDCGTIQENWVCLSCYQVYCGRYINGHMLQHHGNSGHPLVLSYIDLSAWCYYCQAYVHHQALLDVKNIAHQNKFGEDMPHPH
Procedure: The purpose of the study is to determine the effects of Compound 1 on the enzymatic activities of recombinant human HDAC1, HDAC2, HDAC3, HDAC4, HDAC5, HDAC6, HDAC7, HDAC8, and HDAC9 using in-vitro enzymatic assays.
as §1, with “After enzymatic reactions, 50 μl of 2×HDAC Developer was added to each well for the HDAC enzymes and the plate was incubated at room temperature for an additional 15 minutes.” left out
as §2

recombinant human HDAC8 = target: T4, recombinant human HDAC8 (Homo sapiens, UniProt Q9BY41); assay: HDAC8 in-vitro enzymatic assay; type: biochemical
T4 construct: purchased BPS 50008
T4 sequence (Q9BY41 1-377): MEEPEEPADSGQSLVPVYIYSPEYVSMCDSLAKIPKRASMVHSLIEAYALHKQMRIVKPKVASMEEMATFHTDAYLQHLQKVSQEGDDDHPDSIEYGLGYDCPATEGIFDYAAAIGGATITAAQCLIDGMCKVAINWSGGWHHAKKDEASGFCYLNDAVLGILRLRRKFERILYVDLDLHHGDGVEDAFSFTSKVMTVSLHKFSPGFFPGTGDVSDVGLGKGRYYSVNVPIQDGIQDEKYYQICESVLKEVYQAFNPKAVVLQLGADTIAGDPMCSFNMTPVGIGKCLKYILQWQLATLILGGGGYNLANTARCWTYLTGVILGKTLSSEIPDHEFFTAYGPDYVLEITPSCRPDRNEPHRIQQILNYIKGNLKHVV
Procedure: as §1, §2

in vivo = settings: mouse, po

T1 sequence (Q13547 whole entry): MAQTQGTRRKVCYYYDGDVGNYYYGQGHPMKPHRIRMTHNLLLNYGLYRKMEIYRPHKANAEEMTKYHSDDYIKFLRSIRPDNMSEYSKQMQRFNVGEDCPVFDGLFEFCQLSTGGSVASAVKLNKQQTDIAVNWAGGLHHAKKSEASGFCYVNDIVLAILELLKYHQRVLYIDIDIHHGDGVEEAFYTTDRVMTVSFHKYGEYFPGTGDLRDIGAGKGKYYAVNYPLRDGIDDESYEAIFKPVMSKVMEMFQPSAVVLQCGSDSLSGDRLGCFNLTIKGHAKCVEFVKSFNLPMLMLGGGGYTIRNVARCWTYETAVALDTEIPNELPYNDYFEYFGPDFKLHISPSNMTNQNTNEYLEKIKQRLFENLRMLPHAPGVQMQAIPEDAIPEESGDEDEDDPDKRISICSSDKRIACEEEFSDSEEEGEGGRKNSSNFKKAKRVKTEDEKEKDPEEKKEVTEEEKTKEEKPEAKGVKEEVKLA

Q: Which “Stability SGD, SIF w. Enzymes” value [1] does the source give for `C#CCOCC(=O)Nc1ccc(C(=O)Nc2ccccc2N)cc1` [Compound 1, N-(2-aminophenyl)-4-{2-[(prop-2-yn-1-yl)oxy]acetamido}benzamide] here?
A: High

Q: What about the “PO single 5 mg/kg mouse - Ileum C-max” value ([2]; PO single 5 mg/kg) of the same compound?
A: 0.9 µM

Q: And the “PO single 15 mg/kg mouse - Ileum C-max” value ([2]; PO single 15 mg/kg)?
A: 2.0 µM

Q: And the “PO single 50 mg/kg mouse - Ileum C-max” value ([2]; PO single 50 mg/kg)?
A: 7.1 µM

Q: And the IC50 (recombinant human HDAC1)?
A: < 1 µM

Q: What about the inhibition at 1 µM (recombinant human HDAC1; @ 1 μM, read-out: Inhib. HDAC1) of the same compound?
A: 75%

Q: What about the IC50 (recombinant human HDAC4) of the same compound?
A: > 200 µM

Q: And the “Inhib. HDAC4” value (recombinant human HDAC4; @ 200 μM)?
A: No Inhib. @ 200 μM

Q: And the IC50 (recombinant human HDAC6)?
A: > 200 µM

Q: And the “Inhib. HDAC6” value (recombinant human HDAC6; @ 200 μM)?
A: No Inhib. @ 200 μM

Q: What about the IC50 (recombinant human HDAC8) of the same compound?
A: > 200 µM

Q: And the inhibition at 200 µM (recombinant human HDAC8; @ 200 μM, read-out: Inhib. HDAC8)?
A: 42%

Q: What about the MTD at 7 days (in vivo; 7 Days PO once daily MTD - mouse) of the same compound?
A: > 50 mg/kg

Q: And the MTD at 7 days (in vivo; 7 Days PO twice daily MTD - mouse)?
A: 50 mg/kg
